Measured values: US6334996B1, “Chelators that predominantely form a single stereoisomeric species upon coordination to a metal center” (Resolution Pharmaceuticals Inc., priority 1997, dated 2002)

What was measured:
[1] = humans; cited from earlier work
[2] = log D of the metal complexes; assay type: physicochemical; conditions: ^99mTc complex

Row | Compound | excreted at 30 minutes [1] | logD [2]
1 | Tc complex of 2,3-bis(mercaptoacetamide)propanoate [anti isomer of the Tc complex of 2,3-bis(mercaptoacetamide)propanoate (map)] | 19% | 
2 | CN(C)CC(=O)N[C@H](C(=O)N[C@@H](CS)C(=O)NCC(=O)O)C(C)(C)C [^99mTc complex of dimethylglycine-t-butylglycine-cysteine-glycine, metal not drawn] |  | -1.3
3 | CN(C)CC(=O)N[C@@H](CO)C(=O)N[C@@H](CS)C(=O)NCC(=O)O [^99mTc complex of dimethylglycine-serine-cysteine-glycine, metal not drawn] |  | -2.3
4 | Tc complex of 2,3-bis(mercaptoacetamide)propanoate [syn isomer of the Tc complex of 2,3-bis(mercaptoacetamide)propanoate (map)] | 58% | 
